# Measurements from US7956074B2, “Aryl-isoxazolo-4-yl-oxadiazole derivatives” (Hoffman-La Roche Inc., priority 2005, dated 2011).
# Target: T1, GABA A receptor α5β3γ2 (Homo sapiens, UniProt P18507+P31644)
# T1 construct: expressed in transfected cells; host or cells: HEK293 cells, transiently transfected; membranes prepared
# Test: [3H]flumazenil competition binding, human GABA A α5β3γ2
# Settings: competition for [3H]flumazenil (0.5 nM) binding, HEK293 cells expressing human (transiently transfected) α5β3γ2; means of two determinations; read-out: Ki[nM] hα5
# Summary of the method: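 HEK293 membranes expressing GABA-A receptors (human transiently, rat stably transfected) were used for [3H]flumazenil competition in Krebs-tris buffer, pH 7.5. Incubation ran 1 h at 4 °C to equilibrium, followed by filtration and scintillation counting. Ki values are means of two determinations.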
row,Structure (SMILES),Ki
1,"Cc1onc(-c2ccccc2)c1-c1nnc(-c2ccc(F)cc2F)o1 [Example 76, 2-(2,4-Difluoro-phenyl)-5-(5-methyl-3-phenyl-isoxazol-4-yl)-[1,3,4]oxadiazole]",189 nM
2,"Cc1onc(-c2ccccc2)c1-c1nnc(-c2cc(F)ccc2F)o1 [Example 83, 2-(2,5-Difluoro-phenyl)-5-(5-methyl-3-phenyl-isoxazol-4-yl)-[1,3,4]oxadiazole]",163 nM
3,"Cc1onc(-c2ccccc2)c1-c1nnc(-c2ccc(C(F)(F)F)cc2)o1 [Example 50, 2-(5-Methyl-3-phenyl-isoxazol-4-yl)-5-(4-trifluoromethyl-phenyl)-[1,3,4]oxadiazole]",250 nM
4,"Cc1onc(-c2ccccc2)c1-c1nnc(-c2cccc3[nH]cnc23)o1 [Example 125, 4-[5-(5-Methyl-3-phenyl-isoxazol-4-yl)-[1,3,4]oxadiazol-2-yl]-1H-benzoimidazole]",26.8 nM
5,"COc1cc(-n2ccnc2C)ccc1-c1nnc(-c2c(-c3ccccc3)noc2C)o1 [Example 58, 2-[2-Methoxy-4-(2-methyl-imidazol-1-yl)-phenyl]-5-(5-methyl-3-phenyl-isoxazol-4-yl)-[1,3,4]oxadiazole]",13.9 nM
6,"Cc1onc(-c2ccccc2)c1-c1nnc(-c2ccc3c(ccn3C)c2)o1 [Example 75, 1-Methyl-5-[5-(5-methyl-3-phenyl-isoxazol-4-yl)-[1,3,4]oxadiazol-2-yl]-1H-indole]",129 nM
7,"COc1cc(N2CCOCC2)ccc1-c1nnc(-c2c(-c3cccnc3)noc2C)o1 [Example 102, 4-{3-Methoxy-4-[5-(5-methyl-3-pyridin-3-yl-isoxazol-4-yl)-[1,3,4]oxadiazol-2-yl]-phenyl}-morpholine]",146 nM
